Measured values as given in PubChem BioAssay AID743339 (Broad Institute, 2014).
Calls of active or inactive are those of the source.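 Rule for the calls: active = activation curve crossing 200% at or below the highest valid dose tested for that sample; inconclusive = flat curve with activation between 30 and 70%, or poor fit; inactive = the rest, including signal falling instead of rising.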

Biological target: Leucyl-cystinyl aminopeptidase (Mus musculus) (UniProt Q8C129)
Experiment: activation of mouse IRAP aminopeptidase activity – biochemical, Leu-AMC fluorescence, cherry-picked samples, selectivity assay for ERAP1 modulator project, dose response (AID 743339)
Conditions: purified IRAP, Leu-AMC cleavage fluorescence, 1 h

Leucyl-cystinyl aminopeptidase (Mus musculus), sequence (Q8C129 whole entry, looked up): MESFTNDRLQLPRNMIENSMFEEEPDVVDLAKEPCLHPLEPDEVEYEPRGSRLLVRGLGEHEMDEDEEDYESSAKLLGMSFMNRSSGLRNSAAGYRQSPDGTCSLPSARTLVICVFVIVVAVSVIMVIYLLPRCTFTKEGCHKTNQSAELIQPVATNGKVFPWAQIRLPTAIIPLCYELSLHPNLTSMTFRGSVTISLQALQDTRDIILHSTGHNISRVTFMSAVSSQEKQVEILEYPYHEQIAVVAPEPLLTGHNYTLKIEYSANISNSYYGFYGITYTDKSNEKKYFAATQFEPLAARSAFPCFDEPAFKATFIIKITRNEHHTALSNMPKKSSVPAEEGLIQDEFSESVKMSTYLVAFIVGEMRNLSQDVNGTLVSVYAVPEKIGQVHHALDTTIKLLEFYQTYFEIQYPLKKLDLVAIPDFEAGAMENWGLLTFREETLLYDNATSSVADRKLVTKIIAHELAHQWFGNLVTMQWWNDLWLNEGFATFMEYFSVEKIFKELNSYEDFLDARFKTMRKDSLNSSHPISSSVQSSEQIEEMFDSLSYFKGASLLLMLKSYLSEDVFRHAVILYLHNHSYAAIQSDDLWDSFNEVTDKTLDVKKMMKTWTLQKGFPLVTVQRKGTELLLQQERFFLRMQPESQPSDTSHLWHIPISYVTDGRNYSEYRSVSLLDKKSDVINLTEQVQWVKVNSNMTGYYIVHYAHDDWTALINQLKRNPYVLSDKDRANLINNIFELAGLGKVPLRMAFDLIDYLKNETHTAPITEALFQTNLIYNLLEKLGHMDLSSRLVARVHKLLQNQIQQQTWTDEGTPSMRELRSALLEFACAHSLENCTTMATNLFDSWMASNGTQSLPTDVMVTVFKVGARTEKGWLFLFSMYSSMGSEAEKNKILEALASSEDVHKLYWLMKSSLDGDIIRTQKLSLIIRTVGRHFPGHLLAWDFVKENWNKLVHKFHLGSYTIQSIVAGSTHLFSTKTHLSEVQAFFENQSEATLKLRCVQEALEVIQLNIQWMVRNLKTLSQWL

SMILES | AC200
COCC(=O)N1[C@@H]2Cn3c(ccc(/C=C/c4ccccc4)c3=O)[C@H]1[C@@H](C(=O)N1CCOCC1)[C@@H]2CO | 757 nM
CC1CN(Cc2cc(=O)oc3cc(O)c(Cl)cc23)CC(C)O1 (stereo not drawn) | 1350 nM
Cc1ccc(S(=O)(=O)c2cc3ccc(O)cc3oc2=O)cc1C | 362 nM
O=c1cc(CN2CCOCC2)c2cc(Cl)c(O)cc2o1 | 1100 nM
Cc1c(C)c2ccc(O)c(CN3CCN(C)CC3)c2oc1=O | 1510 nM
O=c1ccc2cc(O[C@@H]3O[C@@H](CO)[C@H](O)[C@@H](O)[C@@H]3O)c(O)cc2o1 | 363 nM
O=c1oc2c(CN3CCN(CCO)CC3)c(O)ccc2cc1-c1ccccn1 | 275 nM
CCN(CC)Cc1c(O)ccc2cc(-c3nc4ccccc4n3C)c(=O)oc12 | 229 nM
COC(=O)[C@@H]1[C@@H](CO)[C@@H]2Cn3c(ccc(/C=C/c4ccccc4)c3=O)[C@H]1N2C(=O)C1CCC1 | 1080 nM
Cc1cc(=O)oc2c(CN3CCN(C)CC3)c(O)c(Cl)cc12 | 634 nM
CCc1cc(=O)oc2c(CNCc3c(F)cccc3Cl)c(O)ccc12 | 832 nM
CCCCc1cc(=O)oc2cc(O)ccc12 | 1670 nM
Cc1cc(=O)oc2cc(OCC(=O)N3CCN(C(C)c4ccccc4)CC3)c(Cl)cc12 (stereo not drawn) | 1980 nM
CCc1c(C)c2cc(Cl)c(O)c(CN(C)C)c2oc1=O | 471 nM
Cc1ccc2nc3c(cc(C(=O)NCc4ccccc4)c(=N)n3CCCn3ccnc3)c(=O)n2c1 | 2010 nM
COc1cccc(CN(C)Cc2cc(=O)oc3cc(O)c(Cl)cc23)c1 | 793 nM
O=C(NCc1ccccn1)[C@@H]1[C@@H](CO)[C@@H]2Cn3c(ccc(/C=C/c4ccccc4)c3=O)[C@H]1N2CC1CC1 | 1030 nM
Cc1cc(=O)oc2c(CN3CCCCC3)c(O)ccc12 | 988 nM

SMILES | AC200
COc1ccc(C2=NN(c3ccc(C(=O)O)cc3)C(c3ccc(OC)c(OC)c3)C2)cc1 (stereo not drawn) | 824 nM
CCNC(=O)[C@H]1[C@H](CO)[C@H]2Cn3c(ccc(/C=C/c4ccccc4)c3=O)[C@@H]1N2C(=O)C1CCCC1 | 675 nM
O=C(C[C@H]1CC[C@@H]2[C@H](COC[C@@H](O)CN2C(=O)Nc2cccc(Cl)c2)O1)N1CCCCC1 | > 11000 nM (inactive)
Cc1c(CC(=O)N2CCN(C(=O)C3COc4ccccc4O3)CC2)c(=O)oc2cc(O)c(Cl)cc12 (stereo not drawn) | 661 nM
O=c1ccc2cc(O[C@@H]3O[C@H](CO)[C@@H](O)[C@H](O)[C@H]3O)c(O)cc2o1 | 307 nM
Cc1cc(=O)oc2c(CN3CCCC3)c(O)c(Cl)cc12 | 673 nM
COC(=O)[C@H]1[C@H](CO)[C@H]2Cn3c(ccc(/C=C/c4ccccc4)c3=O)[C@@H]1N2C(=O)C1CCC1 | 842 nM
COCC(=O)N1[C@@H]2c3ccc(/C=C/c4ccccc4)c(=O)n3C[C@H]1[C@H](CO)[C@H]2C(=O)N1CCOCC1 | 684 nM
O=c1oc2cc(O)ccc2cc1S(=O)(=O)c1ccccc1 | 351 nM
Cc1cc(=O)oc2cc(NS(=O)(=O)c3ccc(F)cc3)ccc12 | 998 nM
CN1[C@@H]2Cn3c(ccc(/C=C/c4ccccc4)c3=O)[C@H]1[C@@H](C(=O)NC1CCCC1)[C@@H]2CO | 983 nM
CC(=O)N1[C@@H]2c3ccc(/C=C/c4ccccc4)c(=O)n3C[C@H]1[C@H](CO)[C@H]2C(=O)N1CCOCC1 | 1100 nM
CCc1cc(=O)oc2c(CN3CCN(C)CC3)c(O)ccc12 | 1540 nM
COc1ccc(CNCc2c(O)c(Cl)cc3c(C)c(C)c(=O)oc23)c(OC)c1 | 493 nM
CCN1CCN(Cc2c(O)ccc3c(C)cc(=O)oc23)CC1 | 1540 nM
O=S(=O)(O)c1ccc(N2N=C(c3ccccc3)CC2c2ccccc2)cc1 (stereo not drawn) | 1010 nM
CN(C)Cc1c(O)ccc2cc(-c3nc4ccccc4n3C)c(=O)oc12 | 202 nM

Same assay, conditions: purified IRAP, Leu-AMC cleavage fluorescence, 1 h; at 2.6 µM (top of the series)

SMILES | activation
C[C@@H]1CCCCO[C@@H](CN(C)C(=O)CCC(F)(F)F)[C@@H](C)CN([C@@H](C)CO)C(=O)c2cc(NS(=O)(=O)c3ccccc3)ccc2O1 | 11.6% (inactive)

Same assay, conditions: purified IRAP, Leu-AMC cleavage fluorescence, 1 h; at 5 µM (top of the series)

SMILES | activation
CCCN(C)C[C@@H]1OCCCC[C@@H](C)Oc2ccc(NS(=O)(=O)c3ccc(C)cc3)cc2C(=O)N([C@@H](C)CO)C[C@@H]1C | 0.889% (inactive)

Same assay, conditions: purified IRAP, Leu-AMC cleavage fluorescence, 1 h; at 8 µM (top of the series)

SMILES | activation
CCCN(C)C[C@@H]1OCCCC[C@@H](C)Oc2ccc(NS(=O)(=O)c3ccc(OC)cc3)cc2C(=O)N([C@H](C)CO)C[C@@H]1C | -24.7% (inactive)

Same assay, conditions: purified IRAP, Leu-AMC cleavage fluorescence, 1 h; at 10 µM (top of the series)

SMILES | activation
Cc1noc(C)c1S(=O)(=O)N(C)C[C@@H]1OCCCC[C@@H](C)Oc2ccc(NS(=O)(=O)c3cccs3)cc2C(=O)N([C@@H](C)CO)C[C@@H]1C | -12.6% (inactive)
CCCN(C)C[C@@H]1OCCCC[C@@H](C)Oc2ccc(NS(=O)(=O)c3c(C)noc3C)cc2C(=O)N([C@H](C)CO)C[C@@H]1C | -22.5% (inactive)

Same assay, conditions: purified IRAP, Leu-AMC cleavage fluorescence, 1 h; at 11 µM (top of the series)

SMILES | activation
CCCN(C)C[C@@H]1OCCCC[C@@H](C)Oc2ccc(NS(=O)(=O)c3ccccc3)cc2C(=O)N([C@H](C)CO)C[C@@H]1C | -6.67% (inactive)
C[C@@H]1CCCCO[C@@H](CN(C)Cc2ccc(C(=O)O)cc2)[C@H](C)CN([C@@H](C)CO)C(=O)c2cc(NS(=O)(=O)c3ccc(Cl)cc3)ccc2O1 | -3.97% (inactive)
NC(=NCCc1c[nH]c2ccccc12)NS(=O)(=O)c1cc(F)ccc1F | 20.9% (inactive)
COc1ccc(NC(=O)Nc2ccc3c(c2)C(=O)N([C@H](C)CO)C[C@@H](C)[C@@H](CN(C)Cc2ccc(C(=O)O)cc2)OCCCC[C@@H](C)O3)cc1 | -5.71% (inactive)
COc1ccc(CN(C)C[C@@H]2OCCCC[C@H](C)Oc3ccc(NS(=O)(=O)c4cccs4)cc3C(=O)N([C@H](C)CO)C[C@@H]2C)cc1 | -13.3% (inactive)
C[C@H](CO)N1C[C@H](C)[C@@H](CN(C)CC2CC2)Oc2c(NC(=O)Nc3ccc(C(F)(F)F)cc3)cccc2C1=O | -14.9% (inactive)
COc1ccc2c3c([nH]c2c1)[C@H](CO)N(Cc1cc(F)ccc1F)CC31CN(C)C1 | 1.85% (inactive)
C[C@@H]1CCCCO[C@@H](CN(C)C)[C@@H](C)CN([C@@H](C)CO)C(=O)c2cc(NS(=O)(=O)c3ccc(F)cc3)ccc2O1 | -0.129% (inactive)
COc1cccc(S(=O)(=O)N(C)C[C@@H]2Oc3ncccc3C(=O)N([C@H](C)CO)C[C@@H]2C)c1 | 79.6% (inactive)
CCCN(C)C[C@@H]1OCCCC[C@@H](C)Oc2ccc(NS(=O)(=O)c3ccc(F)cc3)cc2C(=O)N([C@H](C)CO)C[C@@H]1C | -17.1% (inactive)
CCn1cc(CN2CCCC(C(=O)Nc3ccc(-c4nc5ccccc5[nH]4)cc3)C2)c(C)n1 (stereo not drawn) | -5.33% (inactive)
CC(=O)N1CCN(C(=O)C2(NC(=O)Nc3ccc(C)cc3)CCCCC2)CC1 | 10% (inactive)
COc1ccc(CN(C)C[C@@H]2OCCCC[C@@H](C)Oc3ccc(NS(=O)(=O)c4cccs4)cc3C(=O)N([C@H](C)CO)C[C@@H]2C)cc1 | 3.66% (inactive)
O=C(Nc1ccc(C(F)(F)F)cc1)N1[C@@H]2CNC[C@H]1C2c1ccc(-c2ccncc2)cc1 (stereo partly drawn) | 4.27% (inactive)
COC(=O)[C@H]1[C@H](CO)[C@H]2Cn3c(ccc(-c4ccncc4)c3=O)[C@H]2N1Cc1ccccc1F | 19% (inactive)
CCCN(C)C[C@@H]1OCCCC[C@@H](C)Oc2ccc(NS(=O)(=O)c3cccs3)cc2C(=O)N([C@H](C)CO)C[C@@H]1C | -6.14% (inactive)
COc1ccc(CN(C)C[C@@H]2OCCCC[C@@H](C)Oc3ccc(NS(=O)(=O)c4cccs4)cc3C(=O)N([C@@H](C)CO)C[C@H]2C)cc1 | -1.66% (inactive)

SMILES | activation
CCC(=O)N(C)C[C@@H]1Oc2ncc(C#Cc3ccncc3)cc2C(=O)N([C@@H](C)CO)C[C@@H]1C | 2.82% (inactive)
COc1ccc(CN(C)C[C@@H]2OCCCC[C@H](C)Oc3ccc(NS(=O)(=O)c4cccs4)cc3C(=O)N([C@@H](C)CO)C[C@@H]2C)cc1 | 10.9% (inactive)
CCCNC(=O)C[C@H]1CC[C@@H]2[C@H](COC[C@H](O)CN2C(=O)Nc2cccc(Cl)c2)O1 | 24.9% (inactive)
O=C(CSc1cn[nH]n1)Nc1cccc(C(=O)O)c1 | 17.4% (inactive)
COc1ccc(CN(C)C[C@@H]2OCCCC[C@@H](C)Oc3ccc(NS(=O)(=O)c4cccs4)cc3C(=O)N([C@H](C)CO)C[C@H]2C)cc1 | 3.48% (inactive)
C[C@H]1CN([C@@H](C)CO)C(=O)c2cccc(NC(=O)Nc3ccc4c(c3)OCO4)c2O[C@@H]1CN(C)CC1CC1 | -1.26% (inactive)
C[C@@H]1CCCCO[C@@H](CN(C)Cc2ccc(C(=O)O)cc2)[C@@H](C)CN([C@H](C)CO)C(=O)c2cc(NC(=O)Nc3cccc4ccccc34)ccc2O1 | -5.32% (inactive)
Cc1noc(C)c1NC(=O)N(C)C[C@@H]1Oc2c(NC(=O)Nc3ccc(F)cc3)cccc2C(=O)N([C@H](C)CO)C[C@@H]1C | 36.7% (inactive)
COc1ccc(CN(C)C[C@@H]2OCCCC[C@@H](C)Oc3ccc(NS(=O)(=O)c4c(C)noc4C)cc3C(=O)N([C@@H](C)CO)C[C@@H]2C)cc1 | -18.2% (inactive)
C[C@@H]1CCCCO[C@@H](CN(C)CC2CC2)[C@@H](C)CN([C@H](C)CO)C(=O)c2cc(NS(=O)(=O)c3cccs3)ccc2O1 | 11.9% (inactive)
O=C(O)c1ccccc1NS(=O)(=O)c1cccc(-n2sc3ccccc3c2=O)c1 | -25.6% (inactive)
C[C@H](CO)N1C[C@H](C)[C@H](CN(C)CC2CCCCC2)Oc2c(NC(=O)Nc3ccc4c(c3)OCO4)cccc2C1=O | -3.26% (inactive)
Cc1noc(C)c1NC(=O)N(C)C[C@@H]1Oc2c(NC(=O)Nc3ccccc3)cccc2C(=O)N([C@H](C)CO)C[C@@H]1C | 12.9% (inactive)
C[C@@H]1CN([C@H](C)CO)C(=O)c2cccc(NC(=O)Nc3ccccc3)c2O[C@@H]1CN(C)Cc1ccc(C(=O)O)cc1 | 17.7% (inactive)
CO[C@@H]1CN(C)C(=O)c2ccc(NC(=O)Nc3cccc(Cl)c3)cc2OC[C@@H](C)NC[C@H]1C | 15.1% (inactive)
CCN(CCCl)c1cc(CN(C)C)cc(NC(=O)c2ccc(C(=O)Nc3cc(CN(C)C)cc(N(CC)CCCl)c3)cc2)c1 | -21% (inactive)
